According to ChEMBL document CHEMBL1201862, “PubChem BioAssay data set” (2004):
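Five concentrations, 48 hours, 96-well plates. At the GI50, growth is halved.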 Calls of active or inactive are those of the source. Cut-off read from the data, not from the text of the source: active = GI50 up to about 1.1 µM and inactive = higher.

Key:
Test in all cases: DTP human tumour cell line panel, 48 h
M14 = tested on: M14
HL-60 = tested on: HL-60
RPMI-8226 = tested on: RPMI-8226
Malme-3M = tested on: Malme-3M
SNB-75 = tested on: SNB-75
NCI-H460 = tested on: NCI-H460
NCI-H226 = tested on: NCI-H226
SR = tested on: SR
HT-29 = tested on: HT-29
KM12 = tested on: KM12
RXF 393 = tested on: RXF 393
Hs-578T = tested on: Hs-578T
MDA-MB-435 = tested on: MDA-MB-435
HCT-15 = tested on: HCT-15
OVCAR-5 = tested on: OVCAR-5
SK-OV-3 = tested on: SK-OV-3
K562 = tested on: K562
A549 = tested on: A549
HOP-62 = tested on: HOP-62
NCI/ADR-RES = tested on: NCI/ADR-RES
UO-31 = tested on: UO-31
786-0 = tested on: 786-0
OVCAR-4 = tested on: OVCAR-4
U-251 = tested on: U-251
UACC-62 = tested on: UACC-62
SK-MEL-2 = tested on: SK-MEL-2
UACC-257 = tested on: UACC-257
SF-295 = tested on: SF-295
SF-268 = tested on: SF-268
COLO 205 = tested on: COLO 205
T47D = tested on: T47D
OVCAR-8 = tested on: OVCAR-8
TK-10 = tested on: TK-10
ACHN = tested on: ACHN
NCI-H23 = tested on: NCI-H23
SW-620 = tested on: SW-620
BT-549 = tested on: BT-549
SK-MEL-28 = tested on: SK-MEL-28
A498 = tested on: A498
SNB-19 = tested on: SNB-19
LOX IMVI = tested on: LOX IMVI
HOP-92 = tested on: HOP-92
EKVX = tested on: EKVX
SK-MEL-5 = tested on: SK-MEL-5
CCRF-CEM = tested on: CCRF-CEM
HCC 2998 = tested on: HCC 2998
DU-145 = tested on: DU-145
MDA-MB-231 = tested on: MDA-MB-231
IGROV-1 = tested on: IGROV-1
PC-3 = tested on: PC-3
HCT-116 = tested on: HCT-116
NCI-H522 = tested on: NCI-H522
MOLT-4 = tested on: MOLT-4
CAKI-1 = tested on: CAKI-1
OVCAR-3 = tested on: OVCAR-3

Measured: GI50

O=C1CNc2cc(N3CCOCC3)ccc2N1
inactive: M14 > 100 µM | HL-60 > 100 µM | RPMI-8226 > 100 µM | Malme-3M > 100 µM | SNB-75 > 100 µM | NCI-H460 > 100 µM | NCI-H226 > 100 µM | SR > 100 µM | HT-29 > 100 µM | KM12 > 100 µM | RXF 393 > 100 µM | Hs-578T 57.3 µM | MDA-MB-435 > 100 µM | OVCAR-5 > 100 µM | SK-OV-3 > 100 µM | K562 > 100 µM | A549 > 100 µM | HOP-62 > 100 µM | NCI/ADR-RES > 100 µM | UO-31 > 100 µM | 786-0 > 100 µM | OVCAR-4 > 100 µM | U-251 > 100 µM | UACC-62 64.9 µM | SK-MEL-2 > 100 µM | UACC-257 > 100 µM | SF-295 > 100 µM | SF-268 > 100 µM | COLO 205 > 100 µM | T47D > 100 µM | OVCAR-8 > 100 µM | TK-10 > 100 µM | ACHN > 100 µM | NCI-H23 > 100 µM | SW-620 > 100 µM | BT-549 > 100 µM | SK-MEL-28 > 100 µM | A498 60.7 µM | SNB-19 > 100 µM | LOX IMVI > 100 µM | HOP-92 > 100 µM | EKVX 2.91 µM | SK-MEL-5 > 100 µM | CCRF-CEM > 100 µM | HCC 2998 > 100 µM | DU-145 > 100 µM | MDA-MB-231 > 100 µM | IGROV-1 > 100 µM | PC-3 > 100 µM | HCT-116 > 100 µM | NCI-H522 > 100 µM | MOLT-4 > 100 µM | CAKI-1 > 100 µM | OVCAR-3 > 100 µM
> 100 µM: HCT-15
